From EP3797781A1, “USE OF EC-7072 AND SYNERGIC COMPOSITIONS THEREOF IN TREATMENT OF CHRONIC LYMPHOCYTIC LEUKEMIA” (priority 2019, dated 2021)

How the values were obtained:
Format in all cases: cell-based, human
T cells (CD3^+CD56^-) = experiment: T cell numbers, viability and apoptosis in PBMCs (flow cytometry, DiOC6(3)/PI staining); conditions: idelalisib 10 µM, 48 hours; PBMCs from patients with CLL (n = 6 - 8); Figure 4G
Method: (§1) To evaluate absolute cell numbers, an equal volume of PKH26 reference microbeads (Sigma-Aldrich) was added to each sample after staining for immune subset identification. Microbeads (5x10^3) were acquired by flow cytometry and absolute numbers of each immune population within the sample were calculated. Normalized percentage values were calculated considering the control (DMSO)-treated cells as 100%.
(§2) Cell viability and apoptosis were evaluated by double-staining with the mitochondrial inner transmembrane potential (ΔΨm)-sensitive dye DiOC6(3) (3,3'-dihexyloxacarbocyanine iodide; Sigma-Aldrich) and the exclusion dye propidium iodide (PI; Immunostep), allowing identification of apoptotic [DiOC6(3)^low PI^-] and dead [PI^+] cells as per Proc. Natl. Acad. Sci. U.S.A. (2014) 111(8):3020-3025 and Methods Mol. Biol. (2016) 1419:1-16. Briefly, PBMCs were resuspended in culture medium containing 20 nM DiOC6(3) and incubated for 30 minutes at 37 °C. Then, PI (1 µg/mL) was added and cells were further incubated for 10 minutes at room temperature (RT). Cells were analyzed by flow cytometry considering DiOC6(3)^+PI^- cells as viable. In some experiments, apoptosis was evaluated by staining with Annexin V/PI. Thus, PBMCs were incubated in Annexin V binding buffer containing 5 µg/mL Annexin V-FITC (Biolegend) for 15 minutes at RT and PI (1 µg/mL) was subsequently added. Data were normalized to the untreated control as a percentage. Only samples with at least 60% of viable cells (DiOC6(3)^+; Annexin V^-) in the control (DMSO) condition were employed in this study.
(§3) The effect of EC-7072 toward healthy immune subsets, T lymphocytes and natural killer (NK) cells, which are chronically exposed to leukemia cells in the peripheral blood of patients with CLL was assessed by: • (i) incubating PBMCs isolated from patients with CLL (n = 10) following treatment with increasing concentrations of EC-7072 (0 - 400 nM) for 24 hours. Numbers of T cells (CD3^+CD56^-) (Figure 2A) and NK cells (CD3^-CD56^+) (Figure 2B) were evaluated by flow cytometry and normalized to their respective control (DMSO) condition for each individual patient to obtain percentage of relative number of T cells and NK cells, respectively; • (ii) incubating PBMCs isolated from patients with CLL (n = 6 - 10) following treatment with increasing concentrations of EC-7072 (0 - 400 nM) for 24 hours. Viability of immune subsets (leukemia cells, T cells and NK cells) was determined by cytofluorometric assessment of DiOC6(3)/PI staining and normalized to their respective control (DMSO) condition for each individual patient to obtain percentage of viable [DiOC6(3)^+] cells (Figures 2C and 2D); • (iii) incubating PBMCs isolated from patients with CLL (n = 11) following treatment with DMSO or EC-7072 (200 nM) for 24 hours. Numbers of CD4^+ cells (Figure 2E) and CD8^+ T cells (Figure 2F) were evaluated by flow cytometry and normalized to their respective control (DMSO) condition for each individual experiment; • (iv) incubating PBMCs isolated from healthy donors (n = 15) following treatment with EC-7072 (200 nM) for 24 hours. […]

NK cells (CD3^-CD56^+) = experiment: NK cell numbers, viability and apoptosis in PBMCs (flow cytometry, DiOC6(3)/PI staining); conditions: idelalisib 10 µM, 48 hours; PBMCs from patients with CLL (n = 6 - 8); Figure 4G
Method: as §1, §2, §3

[1] = test system: primary fibroblasts from healthy donors; experiment: Cell death of primary fibroblasts by PI staining; conditions: 200 nM, 24 hours; n = 4
Method: (§4) Effectiveness of EC-7072 against different B-cell malignancies was assessed by; • (i) incubating primary fibroblasts from healthy donors (n = 4) and HK-2 cells from healthy human adult kidney (n = 3) following treatment with MTA (200 nM) or EC-7072 (200 nM) for 24 hours. Cell death was evaluated by PI staining to obtain the percentages corresponding to the [PI^+] subset (Figure 5A) and the mean percentage of [PI^+] cells (Figure 5B); • (ii) treating MEC-1, GRANTA-519, Z-138, JVM-2, CA-46, Ramos, Raji and U266 cell lines (n = 3) following treatment with EC-7072 (500 nM) followed by incubation for 24 hours. Cell viability was assessed by DiOC6(3)/PI staining and normalized to control (DMSO) condition to obtain mean percentage of viable [DiOC6(3)^+] cells (Figure 5C).

HK-2 cells = experiment: Cell death of HK-2 cells by PI staining; conditions: 200 nM, 24 hours; n = 3
Method: as §4

primary CLL cells = experiment: Leukemia cell viability and apoptosis by DiOC6(3)/PI staining and flow cytometry; conditions: Z-VAD-fmk 0-100 µM pretreatment, then EC-7072 200 nM for 24 hours; n = 6
Method: as §2
The in vitro cytotoxic activity of EC-7072 against primary CLL cells was assessed by: • (i) incubating PBMCs isolated from patients with CLL (n = 13) following treatment with increasing concentrations of EC-7072 (0 - 400 nM) for 24 hours. Numbers of leukemia cells were evaluated by flow cytometry and normalized to their respective control (DMSO) condition for each individual patient to obtain percentage of leukemia cells (Figure 1A); • (ii) incubating PBMCs from patients with CLL (n = 10) with or without EC-7072 (100-400 nM) for 24 hours. Viability of leukemia cells was determined by cytofluorometric assessment of DiOC6(3)/PI staining and normalized to their respective control condition to obtain percentage viability (Figure 1B); • (iii) incubating PBMCs from patients with CLL (n = 10) with increasing concentrations of EC-7072 (0 - 400 nM) for 24 hours. Apoptosis of leukemia cells was determined by DiOC6(3)/PI staining and flow cytometry to obtain the mean percentages of apoptotic [DiOC6(3)^low PI^-] and dead [PI^+] cells (Figure 1C); • (iv) incubating PBMCs from patients with CLL (n = 10) with or without EC-7072 (200 nM) for 12 to 72 hours. Viability of leukemia cells was determined by DiOC6(3)/PI staining and normalized to their respective control condition to obtain percentage viability (Figure 1D); • (v) incubating PBMCs from patients with CLL (n = 24) with MTA (200 nM) or EC-7072 (200 nM) for 24 hours. Leukemia cell death was determined by DiOC6(3)/PI staining and flow cytometry to obtain the mean percentages of apoptotic [DiOC6(3)^low PI^-] and dead [PI^+] cells (Figure 1E); • (vi) incubating PBMCs from patients with CLL (n = 63) or healthy donors (n = 20) with or without EC-7072 (200 nM) for 24 hours. Viability of leukemia cells and healthy B cells was evaluated by DiOC6(3)/PI staining and normalized to their respective control condition to obtain percentage viability (Figure 1F); • (vii) incubating PBMCs from patients with CLL (n = 62) following treatment with EC-7072 (200 nM) for 24 hours and obtaining a cytogenetic profile for each patient. Viability of leukemia cells was evaluated by DiOC6(3)/PI staining and normalized to their respective control (DMSO) condition for each individual patient to obtain the percentage of viable [DiOC6(3)^+] cells (Figure 1G); • (viii) incubating PBMCs from patients with CLL (n = 59) following treatment with EC-7072 (200 nM) for 24 hours and determining mutational status of IgHV for each patient. Viability of leukemia cells was evaluated by DiOC6(3)/PI staining and normalized to their respective control (DMSO) condition for each individual patient to obtain the percentage of viable [DiOC6(3)^+] cells (Figure 1H). […]

active caspase-3 = experiment: Caspase-3 activity assay in leukemia cells (flow cytometry); conditions: Z-VAD-fmk 0-100 µM pretreatment, then EC-7072 200 nM for 24 hours; n = 6
Method: Intracellular levels of activated caspase-3 were measured by using CaspGLOW™ Fluorescein Active Caspase-3 Staining Kit (Invitrogen). In brief, EC-7072 (200 nM) or DMSO-treated PBMCs from patients with CLL were incubated with FITC-DEVD-fmk for 30 minutes at 37 °c and fluorescence was next analyzed by flow cytometry in leukemia cells. For some experiments, cells were pretreated for 2 hours with the indicated doses of the broad-spectrum caspase inhibitor Z-VAD-fmk.
The induction of caspase-dependent apoptosis on primary CLL cells by EC-7072 was assessed by: • (i) incubating PBMCs isolated from patients with CLL (n = 6) following treatment with increasing concentrations of EC-7072 (0 - 400 nM) for 24 hours. Apoptosis of leukemia cells was evaluated by cytofluorometric assessment of Annexin V/PI staining to obtain percentages of apoptotic [Annexin V^+ PI^-] and dead [PI^+] cells (Figure 3A); • (ii) incubating PBMCs and T cells isolated from patients with CLL (n = 3) following treatment with EC-7072 (200 nM) for 24 hours. T cell apoptosis was evaluated by cytofluorometric assessment of Annexin V/PI staining to obtain percentages of viable [Annexin V-], apoptotic [Annexin V^+ PI^-] and dead [PI^+] cells (Figure 3B); • (iii) incubating PBMCs isolated from patients with CLL (n = 6) following treatment with EC-7072 (0 - 400 nM) for 24 hours. […]

Compound: CC[C@H](Nc1ncnc2[nH]cnc12)c1nc2cccc(F)c2c(=O)n1-c1ccccc1 [Idelalisib, reference compound]
- viability of T cells (T cells (CD3^+CD56^-)): negligible effects
- viability of NK cells (NK cells (CD3^-CD56^+)): negligible effects

Compound: COC(C(=O)C(O)C(C)O)C1Cc2cc3cc(OC4CC(OC5CC(O)C(O)C(C)O5)C(O)C(C)O4)c(C)c(O)c3c(O)c2C(=O)C1OC1CC(OC2CC(OC3CC(C)(O)C(O)C(C)O3)C(O)C(C)O2)C(O)C(C)O1 (stereo not drawn) [MTA, Mithramycin A, reference compound]
- viability of primary human fibroblasts (PI^+ cells) [1]: high toxicity
- viability of HK-2 cells (PI^+ cells) (HK-2 cells): high toxicity

Compound: Z-VAD-fmk [reference compound]
- death of primary CLL cells induced by EC-7072 after Z-VAD-fmk pretreatment (primary CLL cells): completely abrogated the death
- active caspase-3 levels on leukemia cells after Z-VAD-fmk pretreatment (active caspase-3): decrease of active caspase-3 levels
